Measurements from the NIST ThermoML archive (doi:10.1016/j.jct.2008.05.006).
Where “and” joins values, the source holds several entries; their conditions need not be identical. Equal entries are not always repeated. ± gives the expanded uncertainty stated by the source.

Legend:
[1] = Molar enthalpy of transition or fusion; settings: Crystal 3; DSC
[2] = for vapor or sublimation pressure: Calculated from knudsen effusion weight loss; for Triple point temperature: DTA
[3] = molar heat capacity at constant pressure; settings: 101.33 kPa, Small sample (50 mg) DSC

## O=C1NC(=O)C(=O)N1 [parabanic acid]
[1]
  Molar enthalpy of transition or fusion: 0.502 ± 0.191 kcal/mol
[2]; 381.17 K, Crystal 3
  vapor or sublimation pressure: 0.0001133 ± 2e-05 kPa and 0.0001078 ± 2e-05 kPa
[2]; 383.17 K, Crystal 3
  vapor or sublimation pressure: 0.0001373 ± 2.1e-05 kPa and 0.0001334 ± 2.1e-05 kPa
[2]; 385.18 K, Crystal 3
  vapor or sublimation pressure: 0.0001672 ± 2.1e-05 kPa and 0.0001691 ± 2.1e-05 kPa and 0.000159 ± 2.1e-05 kPa
[2]; 387.17 K, Crystal 3
  vapor or sublimation pressure: 0.0001972 ± 2.1e-05 kPa [middle of 4 runs]
[2]; 389.17 K, Crystal 3
  vapor or sublimation pressure: 0.0002355 ± 2.2e-05 kPa and 0.0002336 ± 2.2e-05 kPa and 0.0002271 ± 2.2e-05 kPa
[2]; 391.18 K, Crystal 3
  vapor or sublimation pressure: 0.000285 ± 2.2e-05 kPa and 0.000287 ± 2.2e-05 kPa
[2]; 393.18 K, Crystal 2
  vapor or sublimation pressure: 0.0003353 ± 2.3e-05 kPa and 0.0003334 ± 2.3e-05 kPa
[2]; 395.17 K, Crystal 2
  vapor or sublimation pressure: 0.0004133 ± 2.5e-05 kPa and 0.0004042 ± 2.5e-05 kPa
[2]; 397.16 K, Crystal 2
  vapor or sublimation pressure: 0.0004877 ± 2.7e-05 kPa
[2]; 397.18 K, Crystal 2
  vapor or sublimation pressure: 0.000484 ± 2.7e-05 kPa
[2]; 399.17 K, Crystal 2
  vapor or sublimation pressure: 0.0005715 ± 2.9e-05 kPa
[2]; 401.18 K, Crystal 2
  vapor or sublimation pressure: 0.0006635 ± 3.1e-05 kPa
[2]; 403.17 K, Crystal 2
  vapor or sublimation pressure: 0.0008169 ± 3.5e-05 kPa
[2]; 405.2 K, Crystal 2
  vapor or sublimation pressure: 0.0009469 ± 3.9e-05 kPa and 0.0009581 ± 3.9e-05 kPa
[2]; 406.17 K, Crystal 2
  vapor or sublimation pressure: 0.001047 ± 8.2e-05 kPa and 0.001039 ± 8.1e-05 kPa
[2]; Crystal 1
  Triple point temperature: 520 ± 3 K
[2]; Crystal 2
  Triple point temperature: 509.8 ± 3 K
[2]; Crystal 3
  Triple point temperature: 392.3 ± 3.2 K
[3]; 263.15 K, Crystal 3
  molar heat capacity at constant pressure: 153.78 ± 6.5 J/K/mol
[3]; 265.15 K, Crystal 3
  molar heat capacity at constant pressure: 154.68 ± 6.6 J/K/mol
[3]; 270.15 K, Crystal 3
  molar heat capacity at constant pressure: 157.16 ± 6.7 J/K/mol
[3]; 273.15 K, Crystal 3
  molar heat capacity at constant pressure: 158.53 ± 6.7 J/K/mol
[3]; 275.15 K, Crystal 3
  molar heat capacity at constant pressure: 159.48 ± 6.8 J/K/mol
[3]; 280.15 K, Crystal 3
  molar heat capacity at constant pressure: 161.53 ± 6.8 J/K/mol
[3]; 285.15 K, Crystal 3
  molar heat capacity at constant pressure: 163.59 ± 6.9 J/K/mol
[3]; 290.15 K, Crystal 3
  molar heat capacity at constant pressure: 165.7 ± 7 J/K/mol
[3]; 295.15 K, Crystal 3
  molar heat capacity at constant pressure: 167.6 ± 7.1 J/K/mol
[3]; 300.15 K, Crystal 3
  molar heat capacity at constant pressure: 169.81 ± 7.2 J/K/mol
[3]; 305.15 K, Crystal 3
  molar heat capacity at constant pressure: 172.08 ± 7.3 J/K/mol
[3]; 310.15 K, Crystal 3
  molar heat capacity at constant pressure: 174.5 ± 7.4 J/K/mol
[3]; 315.15 K, Crystal 3
  molar heat capacity at constant pressure: 177.24 ± 7.5 J/K/mol
[3]; 320.15 K, Crystal 3
  molar heat capacity at constant pressure: 179.33 ± 7.6 J/K/mol
[3]; 325.15 K, Crystal 3
  molar heat capacity at constant pressure: 180.62 ± 7.7 J/K/mol
[3]; 330.15 K, Crystal 3
  molar heat capacity at constant pressure: 182.52 ± 7.7 J/K/mol
[3]; 335.15 K, Crystal 3
  molar heat capacity at constant pressure: 184.84 ± 7.8 J/K/mol
[3]; 340.15 K, Crystal 3
  molar heat capacity at constant pressure: 187.21 ± 7.9 J/K/mol
[3]; 345.15 K, Crystal 3
  molar heat capacity at constant pressure: 189.26 ± 8 J/K/mol
[3]; 350.15 K, Crystal 3
  molar heat capacity at constant pressure: 191.69 ± 8.1 J/K/mol
[3]; 355.15 K, Crystal 3
  molar heat capacity at constant pressure: 193.8 ± 8.2 J/K/mol
[3]; 360.15 K, Crystal 3
  molar heat capacity at constant pressure: 196.01 ± 8.3 J/K/mol
[3]; 365.15 K, Crystal 3
  molar heat capacity at constant pressure: 197.59 ± 8.4 J/K/mol
[3]; 370.15 K, Crystal 3
  molar heat capacity at constant pressure: 200.07 ± 8.5 J/K/mol
[3]; 375.15 K, Crystal 3
  molar heat capacity at constant pressure: 201.42 ± 8.6 J/K/mol
[3]; 380.15 K, Crystal 3
  molar heat capacity at constant pressure: 203.59 ± 8.6 J/K/mol
[3]; 400.15 K, Crystal 2
  molar heat capacity at constant pressure: 211.5 ± 9 J/K/mol
[3]; 405.15 K, Crystal 2
  molar heat capacity at constant pressure: 213.6 ± 9.1 J/K/mol
[3]; 410.15 K, Crystal 2
  molar heat capacity at constant pressure: 215.93 ± 9.2 J/K/mol
[3]; 415.15 K, Crystal 2
  molar heat capacity at constant pressure: 216.68 ± 9.2 J/K/mol
[3]; 420.15 K, Crystal 2
  molar heat capacity at constant pressure: 218.83 ± 9.3 J/K/mol
[3]; 425.15 K, Crystal 2
  molar heat capacity at constant pressure: 220.28 ± 9.3 J/K/mol
[3]; 430.15 K, Crystal 2
  molar heat capacity at constant pressure: 222.89 ± 9.5 J/K/mol
[3]; 435.15 K, Crystal 2
  molar heat capacity at constant pressure: 225.62 ± 9.6 J/K/mol
[3]; 440.15 K, Crystal 2
  molar heat capacity at constant pressure: 227.43 ± 9.7 J/K/mol
[3]; 445.15 K, Crystal 2
  molar heat capacity at constant pressure: 229.93 ± 9.8 J/K/mol
[3]; 450.15 K, Crystal 2
  molar heat capacity at constant pressure: 232.06 ± 9.8 J/K/mol
[3]; 455.15 K, Crystal 2
  molar heat capacity at constant pressure: 234.43 ± 9.9 J/K/mol
[3]; 460.15 K, Crystal 2
  molar heat capacity at constant pressure: 236.96 ± 10 J/K/mol
[3]; 465.15 K, Crystal 2
  molar heat capacity at constant pressure: 239.26 ± 10 J/K/mol
[3]; 470.15 K, Crystal 2
  molar heat capacity at constant pressure: 241.31 ± 10 J/K/mol
[3]; 473.15 K, Crystal 2
  molar heat capacity at constant pressure: 243.13 ± 10 J/K/mol
